Data on 23 compounds can be found in paper PMC3894558, “Chemical signatures and new drug targets for gametocytocidal drug development” (Scientific Reports, 2014).

Read-outs that look alike come from different tables or passages of the source.

The subject of assay [1] is P. falciparum 3D7 gametocytes. The assay can be described thus: alamarBlue gametocyte viability assay, strain 3D7. The class given is cell-based, Plasmodium falciparum. (Resazurin is reduced to fluorescent resorufin, in cell work by metabolically active cells.)
The test system of assay [2] is P. falciparum HB3 gametocytes. The assay can be described thus: alamarBlue gametocyte viability assay, strain HB3. The class given is cell-based, Plasmodium falciparum.
Protocol: (§1) Briefly, gametocyte cultures were set up at 0.1% parasitemia and on days 9–10 treated with 50 mM N-acetylglucosamine (NAG) to block further asexual growth. Stage III–V gametocytes were isolated by Percoll density gradient centrifugation on day 12 and returned to culture for 24 hrs before being used in the assay[9].
(§2) Briefly, 2.5 μl/well incomplete medium was dispensed into each well of 1,536-well plates using the Multidrop Combi followed by 23 nl compound transferring using the NX-TR Pintool (WAKO Scientific Solutions, San Diego, CA). Then, 2.5 μl/well of gametocytes was dispensed with a seeding density of 20,000 cells/well using the Multidrop Combi. The assay plates were incubated for 72 hrs at 37°C with 5% CO2.
Assay [3] relates to P. falciparum Dd2 gametocytes. In words: alamarBlue gametocyte viability assay, strain Dd2. It is filed as cell-based, Plasmodium falciparum.
Protocol: as §1, §2
A further assay deals with HepG2 cells. In words: cells. The note with it: Homo sapiens; for Emax: HepG2, read-out: % Max response; for IC50: HepG2, read-out: IC50 in HepG2 cells.
Setting [4] is: Plasmodium falciparum, 3D7, P. falciparum 3D7 gametocytes, mean of at least 3 independent experiments, read-out: Gametocyte IC50.
The mark [5] stands for this setting: Plasmodium falciparum, HB3, strain profiling, 11 concentrations, 1:3 dilution, three times, read-out: HB3-gametocytes IC50.
Where [6] appears, read: Plasmodium falciparum, DD2, strain profiling, 11 concentrations, 1:3 dilution, three times, read-out: Dd2-gametocytes IC50.
The mark [7] stands for this setting: Plasmodium falciparum, DD2, read-out: Dd2-gametocytes IC50.
[8] abbreviates: Plasmodium falciparum, 3D7, strain profiling, 11 concentrations, 1:3 dilution, three times, read-out: 3D7-gametocytes IC50.
The mark [9] stands for this setting: Plasmodium falciparum, P. falciparum 3D7 gametocytes, mean of at least 3 independent experiments, read-out: Gametocyte IC50.
Where [10] appears, read: Plasmodium falciparum, HB3, read-out: HB3-gametocytes IC50.
The mark [11] stands for this setting: strain profiling, 11 concentrations, 1:3 dilution, three times, read-out: 3D7-gametocytes IC50.
Where [12] appears, read: strain profiling, 11 concentrations, 1:3 dilution, three times, read-out: HB3-gametocytes IC50.
Setting [13] is: strain profiling, 11 concentrations, 1:3 dilution, three times, read-out: Dd2-gametocytes IC50.

Description for HepG2 cells: Growth medium was made with Dulbecco's Modified Eagle Medium with 10% fetal bovine serum (FBS).

In general, IC50 refers to the concentration needed to halve the response being measured. On to `Cc1[nH]c2ccccc2c1CCNCc1ccc(/C=C/C(=O)NO)cc1` [Panobinostat], for which the half-maximal inhibitory concentration (IC50) in assay [1] (setting [4]) stood at 935 nM; in assay [2] (setting [5]), 148 nM; in assay [3] (setting [6]), 118 nM; with HepG2 cells it was 372 nM. Also, the Emax in the assay with HepG2 cells is -74%.

As for `CC(C)C[C@H](NC(=O)[C@H](Cc1ccccc1)NC(=O)c1cnccn1)B(O)O` [Bortezomib], the IC50 in assay [1] (setting [4]) was 118 nM; in assay [2] (setting [5]) it was 74 nM; in assay [3] (setting [6]), 94 nM; with HepG2 cells, 148 nM. The Emax with HepG2 cells was -82%.

As for `COCCn1c2c([n+](Cc3cnccn3)c1C)C(=O)c1ccccc1C2=O` [YM155], the IC50 came out at 372 nM in assay [1] (setting [4]), 304 nM in assay [2] (setting [5]), 526 nM in assay [3] (setting [6]) and 4690 nM with HepG2 cells. The Emax in the assay on HepG2 cells was -92%.

In the case of `CO[C@@H]1[C@@H](OC)[C@H](C)[C@@](O)(CC(=O)O)O[C@H]1[C@H](C)[C@H]1O[C@@]2(CC[C@@](C)([C@H]3CC[C@@](C)([C@@H]4O[C@@H]([C@H]5O[C@](C)(O)[C@H](C)C[C@@H]5C)C[C@@H]4O[C@@H]4C[C@H](OC)[C@@H](OC)[C@H](C)O4)O3)O2)C[C@H](O)[C@H]1C` [Maduramicin], the 50% inhibitory concentration (IC50) in assay [1] (setting [4]) turned out to be 47 nM. Further, in the assay on HepG2 cells, the Emax was -42% and the IC50 was found to be 37200 nM.

Take `COc1ccc(C[C@H](N)C(=O)N[C@H]2[C@@H](O)[C@H](n3cnc4c(N(C)C)ncnc43)O[C@@H]2CO)cc1` [Puromycin]: the IC50 in assay [1] (setting [4]) worked out at 1050 nM; in assay [2] (setting [5]), 1480 nM; in assay [3] (setting [6]) it was 2640 nM; with HepG2 cells, 11800 nM. Also, the Emax in the assay on HepG2 cells was -71%.

Regarding `[O-][n+]1ccccc1SSc1cccc[n+]1[O-]` [Dipyrithione], the IC50 in assay [1] (setting [4]) stood at 263 nM; in assay [2] (setting [5]), 743 nM; in assay [3] (setting [7]), 590 nM; in the assay with HepG2 cells, 10800 nM. Besides, the Emax with HepG2 cells is -93%.

Regarding `CO[C@H]1/C=C\C=C(/C)C(=O)NC2=CC(=O)C(NCCN(C)C)=C(C[C@@H](C)C[C@H](OC)[C@H](O)[C@@H](C)/C=C(\C)[C@@H]1OC(N)=O)C2=O` [Alvespimycin], the IC50 in assay [1] (setting [4]) stood at 74 nM; in assay [2] (setting [5]), 235 nM; in assay [3] (setting [7]), 94 nM; in the assay with HepG2 cells, 118 nM. Besides, the Emax in the assay on HepG2 cells was -94%.

For `CC(C)C[C@H](NC(=O)[C@H](CCc1ccccc1)NC(=O)CN1CCOCC1)C(=O)N[C@@H](Cc1ccccc1)C(=O)N[C@@H](CC(C)C)C(=O)[C@@]1(C)CO1` [Carfilzomib], the IC50 amounted to 12 nM in assay [1] (setting [4]); 4 nM in assay [1] (setting [8]); 3 nM in assay [2] (setting [5]); 2 nM in assay [3] (setting [6]); 1180 nM in the assay with HepG2 cells. The Emax with HepG2 cells was -79%.

As to `CC[C@@H](C(=O)O)[C@@H]1O[C@@H]([C@@H](C)[C@H](O)[C@H](C)C(=O)[C@H](CC)[C@H]2O[C@]3(C=C[C@@H](O)[C@]4(CC[C@@](C)([C@H]5CC[C@](O)(CC)[C@H](C)O5)O4)O3)[C@H](C)C[C@@H]2C)[C@@H](C)C[C@@H]1C` [Narasin], the IC50 stood at 50 nM in assay [1] (setting [4]), 136 nM in assay [2] (setting [5]), 76 nM in assay [3] (setting [7]) and 27000 nM with HepG2 cells. In addition, the Emax in the assay with HepG2 cells was -98%.

Take `CCNC(=O)c1noc(-c2cc(C(C)C)c(O)cc2O)c1-c1ccc(CN2CCOCC2)cc1` [NVP-AUY922]: the IC50 turned out to be 47 nM in assay [1] (setting [4]), 42 nM in assay [2] (setting [5]), 47 nM in assay [3] (setting [6]) and 148 nM in the assay with HepG2 cells. Further, the Emax in the assay with HepG2 cells is -88%.

With `C/C=C1\NC(=O)[C@H]2CSSCC/C=C/[C@H](CC(=O)N[C@H](C(C)C)C(=O)N2)OC(=O)[C@H](C(C)C)NC1=O` [Romidepsin], the IC50 in assay [1] (setting [8]) is 264 nM; in assay [1] (setting [9]), 637 nM; in assay [2] (setting [10]) it was 148 nM; in assay [3] (setting [7]) it was 187 nM; in the assay with HepG2 cells, 74 nM. For the same compound, the Emax in the assay on HepG2 cells was -98%.

As to `COC(=O)C[C@](O)(CCCC(C)(C)O)C(=O)O[C@@H]1C(OC)=C[C@]23CCCN2CCc2cc4c(cc2[C@H]13)OCO4` [Omacetaxine mepesuccinate], the IC50 in assay [1] (setting [8]) amounted to 59 nM; in assay [2] (setting [5]), 17 nM; in assay [3] (setting [6]), 37 nM.

Take Salinomycin monosodium: the IC50 worked out at 194 nM in assay [1] (setting [11]), 469 nM in assay [2] (setting [12]) and 296 nM in assay [3] (setting [13]).

With `CO[C@@H]1[C@@H](OC)[C@H](C)[C@@](O)(CC(=O)O)O[C@H]1[C@H](C)[C@H]1O[C@@]2(CC[C@@](C)([C@H]3CC[C@@](C)([C@@H]4O[C@@H]([C@H]5O[C@](C)(O)[C@H](C)C[C@@H]5C)C[C@@H]4O[C@@H]4C[C@H](OC)[C@@H](OC)[C@H](C)O4)O3)O2)C[C@H](O)[C@H]1C` [Maduramicin ammonium], the results for the IC50 in assay [1] (setting [8]), in assay [2] (setting [5]) and in assay [3] (setting [6]) were 24 nM, 12 nM and 37 nM, respectively.

In the case of `CN(C)C/C=C/C(=O)Nc1cc2c(Nc3ccc(F)c(Cl)c3)ncnc2cc1O[C@H]1CCOC1` [Afatinib], the IC50 in assay [1] (setting [4]) was 935 nM; in assay [2] (setting [5]) it was 4180 nM; in assay [3] (setting [6]) it was 2960 nM; in the assay with HepG2 cells, 18700 nM. Also, the Emax with HepG2 cells was -100%.

As for `CCN(CC)C(=S)SSC(=S)N(CC)CC` [Disulfiram], the IC50 in assay [1] (setting [8]) was 96 nM; in assay [2] (setting [5]), 108 nM; in assay [3] (setting [6]), 96 nM.

Regarding `C#Cc1cccc(Nc2ncnc3cc(OC)c(OCCCCCCC(=O)NO)cc23)c1` [CUDC-101], the IC50 in assay [1] (setting [4]) is 833 nM; in assay [2] (setting [5]), 152 nM; in assay [3] (setting [6]), 429 nM; in the assay with HepG2 cells it was 6790 nM. The “fold more potent against HB3 compared to 3D7 gametocytes” value in assay [2] stood at 5.5 fold. The Emax in the assay on HepG2 cells is -76%.

`COc1cc(NC(C)CCCN)c2ncccc2c1` (stereo not drawn) [Primaquine]: the IC50 in assay [2] (read-out: HB3-gametocytes IC50, strain profiling, 11 concentrations, 1:3 dilution, three times, listed as PQ) came to 680 nM; in assay [3] (Plasmodium falciparum, DD2, read-out: Dd2-gametocytes IC50, strain profiling, 11 concentrations, 1:3 dilution, three times), 1080 nM; in assay [3] (read-out: Dd2-gametocytes IC50, strain profiling, 11 concentrations, 1:3 dilution, three times, listed as PQ), 1080 nM; with HepG2 cells, 17800 nM.

As for `c1cnc2c(c1)ccc1cccnc12` [1,10-Phenanthroline], the IC50 was 743 nM in assay [1] (Plasmodium falciparum, 3D7, read-out: 3D7-gametocytes IC50, strain profiling, 11 concentrations, 1:3 dilution, three times); 1180 nM in assay [2] (setting [5]); 1320 nM in assay [3] (setting [6]).

`CC[C@@H](C(=O)[C@@H](C)[C@@H](O)[C@H](C)[C@@H]1O[C@@H]([C@@H](CC)C(=O)O)CC[C@@H]1C)[C@H]1O[C@]2(C=C[C@@H](O)[C@]3(CC[C@@](C)([C@H]4CC[C@](O)(CC)[C@H](C)O4)O3)O2)[C@H](C)C[C@@H]1C` [Salinomycin sodium]: the IC50 in assay [1] (setting [8]) came to 118 nM; in assay [1] (setting [9]), 194 nM; in assay [2] (setting [10]), 372 nM; in assay [3] (setting [7]), 296 nM; with HepG2 cells, 29600 nM. Besides, the Emax in the assay with HepG2 cells is -69%.

Take `CC1=C(CO)C(=O)O[C@@H]([C@@H](C)[C@H]2CC[C@H]3[C@@H]4C[C@H]5O[C@]56[C@@H](O)C=CC(=O)[C@]6(C)[C@H]4CC[C@]23C)C1` [Withaferin A]: the IC50 in assay [1] (setting [4]) is 372 nM; in assay [2] (setting [5]), 1330 nM; in assay [3] (setting [6]), 372 nM; with HepG2 cells, 9350 nM. The Emax in the assay with HepG2 cells was -80%.

`Cl.Cl.Cl.Cl.Cl.Cl.N.N.N.N.N.N.N.N.N.N.N.N.N.N.[O-2].[O-2].[Ru+3].[Ru+3].[Ru+4]` [Ruthenium red]: the IC50 in assay [1] (setting [11]) turned out to be 935 nM; in assay [2] (setting [12]) it was 264 nM; in assay [3] (setting [13]) it was 526 nM.

Consider `OC(c1cc(C(F)(F)F)nc2c(C(F)(F)F)cccc12)C1CCCCN1` (stereo not drawn) [Mefloquine], for which the IC50 is 833 nM in assay [1] (setting [4]) and 29600 nM in the assay with HepG2 cells. Moreover, the Emax with HepG2 cells is -97%.
